Results from PMC6838151 (Scientific Reports, 2019).
Entries after “also recorded” stand apart in the source; their conditions may differ.

How the values were obtained:
C. albicans CAF2-1 = assay: microbe, parasite or virus in culture; type: cell-based, Candida albicans; conditions: for effect of combination with higher Flc concentrations: KeP (0.39 uM) / KeOP (1.56 uM) combined with 3.25 and 6.25 uM Flc, CAF2-1
Procedure: The synergistic effects of KeOP/KeP with Flc were determined using the M27-A3 method with modifications. Flc and KeOP/KeP stock solutions in DMSO (10 mM) were (alone and simultaneously) diluted in RPMI-1640 medium to obtain final concentrations of^1/8; ^1/4; ^1/2; 1 × MIC50 towards C. albicans CAF2-1 strain in microdilution sterile plates (Sarstedt). Statistical significance analysis was performed using Student’s t-test ([…], unpaired) comparing viability in the presence of corresponding Flc concentrations with/without KeOP/KeP.

hASCs = assay: Confocal imaging of mitochondrial network (MitoRed) and F-actin (Phalloidin Atto 590) in hASCs; type: cell-based, human; conditions: 20 µM, 24 h
Procedure: The mitochondrial network was visualized using MitoRed staining. After 24-hours treatment with either Ke, KeP or KeOP, the media were removed and replaced with MitoRed dye in 1:1000 dilution in fresh complete media. Cells were incubated for 30 minutes at 37 °C, then washed with Phosphate Buffered Saline (PBS), fixed with 4% paraformaldehyde (PFA) solution, washed three times and nuclei were counterstained with diamidino-2-phenylindole (DAPI).
In order to perform F-actin imaging, cells were fixed with 4% PFA solution, washed with PBS and then permeabilized using 0.5% TX-100 (incubation 15 minutes, room temperature). The cells were rinsed and incubated with Phalloidin-Atto 590 solution in PBS (dilution 1:1000) at 37 °C for 30 minutes in the dark. After washing, the cells were counterstained with DAPI.
Cells were observed and images were taken using confocal microscopy performed with a Leica TCS-SP8 laser scanning confocal microscope. Data were further processed with the use of ImageJ software.

HepaRG cells = conditions: cited from earlier work
[1] = tested on: hASCs (human adipose-derived stromal cells); assay: Cytotoxicity IC50, TOX-8 resazurin assay, hASCs, 24 h; type: cell-based; conditions: hASCs, TOX-8 assay, 24 h
Procedure: Human Adipose Tissue-derived Stem Cells (hASCs) were isolated from subcutaneous adipose tissue fragments harvested from non-diabetic female donors (age range 33–38, n = 2) during standard surgical procedure of total hip arthroplasty. Immediately after collection of tissue, the samples were placed in sterile tissue-transport medium (Hank’s Balanced Salt Solution (HBSS) supplemented with 1% Penicillin/Streptomycin/Amphotericin B solution (P/S/A). Mesenchymal stromal cell isolation was performed using enzymatic digestion of extracellular matrix with collagenase type I. Before digestion, tissue specimens were washed twice with HBSS and incubated in collagenase type I solution (1 mg/mL) at 37 °C for 40 min. The digest was subsequently centrifuged (1200 × g; 10 minutes; room temperature) and the cell pellet was resuspended in Dulbecco’s modified Eagle’s medium (DMEM) with Nutrient F-12 Ham, 10% of Fetal Bovine Serum (FBS), and 1% of P/S/A, transferred to a culture flask, and kept in culture under optimal conditions (37 °C in a humidified atmosphere of 5% CO2). The medium was refreshed every 2–3 days. At 80–90% confluence, the cells were passaged using trypsin solution (TrypLE Express, Life Technologies, California, USA). At passage 3, hASCs were collected and cellular phenotype was confirmed by the high expression of markers CD44, CD29, CD73, CD105 and low expression of CD45. Moreover, the trilineage differentiation capacity of ASCs was confirmed as previously described.
The IC50 values were determined using in vitro Toxicology TOX-8 Assay Kit (resazurin based) according to the manufacturer’s protocol. For this assay, cells were seeded in a 96-well plate at a density of 5 × 10^3 cells/well. The cells were pre-incubated in drug-free complete medium for 24 h before adding various concentrations of the compounds to be investigated. Stock solutions of the compounds were prepared in DMSO following serial dilutions in DMEM with Nutrient F-12 Ham complete medium. The cells exposure period was 24 h. After that time media were replaced with 10% v/v resazurin dye solution in fresh complete culture medium. Incubation was carried out for 2 h at 37 °C in the CO2 incubator. Reduction of the dye was measured spectrophotometrically at 600 nm and 690 nm reference wavelength (Epoch, Biotek). Absorbance measurements allowed the determination of viable treated cells relative to untreated controls using the inflection point of a dose-response graph. IC50 values were estimated as duplicates of triplicate readings in two independent experiments.

[2] = Candida albicans, CAF21, read-out: Viability of C. albicans CAF2-1

SMILES: O=P(CN1CCN(c2ccc(OC[C@H]3CO[C@](Cn4ccnc4)(c4ccc(Cl)cc4Cl)O3)cc2)CC1)(c1ccccc1)c1ccccc1 (racemic) [KeOP, Ph2P(O)CH2-Ke]
- viability at 0.1 µM (C. albicans CAF2-1; [2]): 102 ± 2.22%
- viability at 0.2 µM (C. albicans CAF2-1; [2]): 93.9 ± 7.22%
- viability at 0.39 µM (C. albicans CAF2-1; [2]): 91.2 ± 10.7%
- effect of combination with higher Flc concentrations (C. albicans CAF2-1): fungicidal effect

SMILES: Clc1ccc([C@@]2(Cn3ccnc3)OC[C@H](COc3ccc(N4CCN(CP(c5ccccc5)c5ccccc5)CC4)cc3)O2)c(Cl)c1 (racemic) [KeP, Ph2PCH2-Ke]
- MIC50 of Flc in combination (C. albicans CAF2-1; C. albicans CAF2-1, with KeP (0.39 uM), reduced from 6.25 uM): 1.56 µM
- viability at 0.39 µM (C. albicans CAF2-1; [2]): 115 ± 9.06%
- viability at 0.78 µM (C. albicans CAF2-1; [2]): 102 ± 1.98%
- viability at 1.56 µM (C. albicans CAF2-1; [2]): 96.8 ± 3.21%
- effect of combination with higher Flc concentrations (C. albicans CAF2-1): fungicidal effect
- mitochondrial membrane potential (MitoRed staining) (hASCs): lowest mitochondrial membrane potential
- number of mitochondria (MitoRed staining) (hASCs): lowest number of mitochondria

SMILES: CC(=O)N1CCN(c2ccc(OCC3COC(Cn4ccnc4)(c4ccc(Cl)cc4Cl)O3)cc2)CC1 (stereo not shown) [Ke, ketoconazole, reference compound]
- concentration at which cytotoxicity started (HepaRG cells): 100 µM

SMILES: S=P(CN1CCN(c2ccc(OC[C@H]3CO[C@](Cn4ccnc4)(c4ccc(Cl)cc4Cl)O3)cc2)CC1)(c1ccccc1)c1ccccc1 [KeSP, Ph2P(S)CH2-Ke]
- IC50 (cytotoxicity, hASCs viability) [1]: not cytotoxic in the tested concentration range; also recorded: not toxic
